What was measured:
[1] = Biorelevant dissolution testing (solubility/precipitation): SGF (0.1N HCl) then transfer to SIF (FaSSIF); type: physicochemical; settings: for Total Drug CmaxGB: SGF (0.1N HCl, pH=1), 0-30 min, equivalent to 2.0 mg/mL of compound I in 50 mL; for Total Drug AUC 35-210 FaSSIF / Total Drug C210: SIF/FaSSIF; for Total Drug AUC 35-210 FaSSIF: 35-210 min; for Total Drug C210: 210 min; for Total Drug CmaxFaSSIF: after transfer at 30 min into 50 mL SIF (2.24 mg/mL FaSSIF in 100 mM PBS)
Procedure: Appropriate amounts (equivalent to 2.0 mg/mL of compound I) of composition of invention were added to 50 mL of 0.1N HCl and stirred. The aliquots of mixture were withdrawn at 10 and 25 minutes, vortexed for 10 seconds and the dissolved amount was measure by analytical HPLC using external reference standards at a wavelength of 240 nm. After 30 minutes, the entire content of sample from SGF incubation was transferred into 50 mL of SIF media with stirring, and the dissolved amount was measured at 35, 50, 75, 120 and 210 minutes.

[2] = Solubility of Compound I (preformulation, stated in words); type: physicochemical; settings: b16: in vitro, crystalline form
[3] = Permeability of Compound I (stated in words); type: in vitro ADME
[4] = Oral exposure of suspension formulations (preformulation studies); type: in vivo; settings: increased with 0.5% HPMC, depends on fed/fasted state

CCn1cc(C(=O)N2CCOCC2)c(=O)c2cc(NC3Cc4ccccc4C3)cnc21 [100% BNC210 SD]
Increase in AUC over API AUC ([1]; AUC 35-210 FaSSIF relative to BNC210 API): 2
Total Drug CmaxGB [1]: 158 μgA/mL
Total Drug AUC 35-210 FaSSIF [1]: 8700 min * μgA/mL
Total Drug C210 [1]: 60 μgA/mL
Total Drug CmaxFaSSIF [1]: 68 μgA/mL

CCn1cc(C(=O)N2CCOCC2)c(=O)c2cc(NC3Cc4ccccc4C3)cnc21 [BNC210 API]
Solubility ([2]; listed as Compound I): poorly soluble
Solubility ([2]; listed as compound I): poor in vitro solubility
Total Drug CmaxGB [1]: 88 μgA/mL
Total Drug AUC 35-210 FaSSIF [1]: 4300 min * μgA/mL
Total Drug C210 [1]: 29 μgA/mL
Total Drug CmaxFaSSIF [1]: 32 μgA/mL
Permeability [3]: moderate permeability
Oral exposure [4]: low oral exposure
